Experimental data: paper PMC3354555, “Partial Purification and Characterization of Rhodanese from Rainbow Trout (Oncorhynchus mykiss) Liver” (The Scientific World Journal, 2012)

System: T1, rainbow trout liver rhodanese (thiosulphate: cyanide sulphurtransferase, EC 2.8.1.1)
T1 construct: gene tst
Conditions: 50 mM KCN, 25 mM citrate-phosphate-borate pH 10.5, 25°C; apparent; partially purified enzyme

O=S(O)(O)=S [Na2S2O3]
Km: 19.8 mM
